target: T1, Glucocorticoid receptor (Homo sapiens, UniProt P04150); conditions: hela s3; note: in other assays of this panel Not Active means under 50% inhibition at 10 µM
T1 sequence (P04150 whole entry): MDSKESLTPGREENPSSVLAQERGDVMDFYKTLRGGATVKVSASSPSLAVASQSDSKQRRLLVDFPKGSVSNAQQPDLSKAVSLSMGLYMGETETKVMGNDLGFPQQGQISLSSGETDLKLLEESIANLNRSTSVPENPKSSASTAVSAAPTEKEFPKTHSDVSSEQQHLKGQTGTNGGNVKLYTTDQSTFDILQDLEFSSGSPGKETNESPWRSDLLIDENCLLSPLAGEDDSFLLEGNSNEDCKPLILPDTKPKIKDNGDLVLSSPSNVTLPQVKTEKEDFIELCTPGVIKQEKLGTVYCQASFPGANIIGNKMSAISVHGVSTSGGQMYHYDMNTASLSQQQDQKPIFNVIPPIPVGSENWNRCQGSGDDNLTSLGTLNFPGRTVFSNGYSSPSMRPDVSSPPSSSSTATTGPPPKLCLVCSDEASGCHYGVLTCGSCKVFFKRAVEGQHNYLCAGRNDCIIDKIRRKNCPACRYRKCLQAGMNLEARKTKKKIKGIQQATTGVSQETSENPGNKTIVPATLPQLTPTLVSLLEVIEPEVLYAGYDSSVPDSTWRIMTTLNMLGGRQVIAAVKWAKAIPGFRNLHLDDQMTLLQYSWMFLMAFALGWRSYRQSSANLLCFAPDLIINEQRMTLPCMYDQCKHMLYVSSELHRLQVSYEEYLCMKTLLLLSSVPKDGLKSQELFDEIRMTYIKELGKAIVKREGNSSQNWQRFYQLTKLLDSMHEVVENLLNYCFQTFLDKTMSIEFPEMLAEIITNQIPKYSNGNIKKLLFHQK

Structure (SMILES)	IC50
Cc1cc2c(OCC(CNC(C)(C)C)OC(=O)c3ccccc3)cccc2[nH]1 (centres undefined) [BOPINDOLOL]	Not Active
Brc1c(NC2=NCCN2)ccc2nccnc12 [BRIMONIDINE]	Not Active
CN(C)[C@@H]1C(O)=C(C(N)=O)C(=O)[C@@]2(O)C(O)=C3C(=O)c4c(O)ccc(Cl)c4[C@@](C)(O)[C@H]3C[C@@H]12 [CHLORTETRACYCLINE]	Not Active
COc1cc(N)c(Cl)cc1C(=O)NC1CCN(CCCOc2ccc(F)cc2)CC1OC (centres undefined) [CISAPRIDE]	Not Active
O=C1CN=C(c2ccccc2Cl)c2cc([N+](=O)[O-])ccc2N1 [CLONAZEPAM]	Not Active
Nc1ccn([C@@H]2O[C@H](CO)[C@@H](O)[C@@H]2O)c(=O)n1 [CYTARABINE]	Not Active
CN(C)CC[C@@H](c1ccc(Cl)cc1)c1ccccn1 [DEXCHLORPHENIRAMINE]	Not Active

system: not listed separately; assay: DRUGMATRIX: Calcium Channel Type L, Dihydropyridine radioligand binding (ligand: [3H] Nitrendipine); type: cell membranes, Rattus norvegicus, Wistar, Cerebral cortex, Membrane; conditions: Not Active = under 50% inhibition at 10 µM

Structure (SMILES)	IC50	Ki
Cc1cc2c(OCC(CNC(C)(C)C)OC(=O)c3ccccc3)cccc2[nH]1 (centres undefined) [BOPINDOLOL]	Not Active	Not Active
Brc1c(NC2=NCCN2)ccc2nccnc12 [BRIMONIDINE]	Not Active	Not Active
CN(C)[C@@H]1C(O)=C(C(N)=O)C(=O)[C@@]2(O)C(O)=C3C(=O)c4c(O)ccc(Cl)c4[C@@](C)(O)[C@H]3C[C@@H]12 [CHLORTETRACYCLINE]	Not Active	Not Active
COc1cc(N)c(Cl)cc1C(=O)NC1CCN(CCCOc2ccc(F)cc2)CC1OC (centres undefined) [CISAPRIDE]	Not Active	Not Active
O=C1CN=C(c2ccccc2Cl)c2cc([N+](=O)[O-])ccc2N1 [CLONAZEPAM]	Not Active	Not Active
Nc1ccn([C@@H]2O[C@H](CO)[C@@H](O)[C@@H]2O)c(=O)n1 [CYTARABINE]	Not Active	Not Active
CN(C)CC[C@@H](c1ccc(Cl)cc1)c1ccccn1 [DEXCHLORPHENIRAMINE]	Not Active	Not Active

target: T2, B2 bradykinin receptor (Homo sapiens, UniProt P30411); type: cell membranes, Membrane; conditions: chem-1; note: in other assays of this panel Not Active means under 50% inhibition at 10 µM
T2 sequence (P30411 whole entry): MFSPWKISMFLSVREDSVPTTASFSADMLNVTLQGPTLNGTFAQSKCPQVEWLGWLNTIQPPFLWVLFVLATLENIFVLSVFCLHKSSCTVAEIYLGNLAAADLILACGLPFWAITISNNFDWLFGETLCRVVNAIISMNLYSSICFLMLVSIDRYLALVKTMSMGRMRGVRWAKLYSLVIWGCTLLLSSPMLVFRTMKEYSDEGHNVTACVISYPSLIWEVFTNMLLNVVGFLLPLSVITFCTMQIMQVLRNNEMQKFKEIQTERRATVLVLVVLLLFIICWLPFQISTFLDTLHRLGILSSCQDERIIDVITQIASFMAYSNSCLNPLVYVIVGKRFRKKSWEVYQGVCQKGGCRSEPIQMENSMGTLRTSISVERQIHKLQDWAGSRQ

Structure (SMILES)	IC50
Cc1cc2c(OCC(CNC(C)(C)C)OC(=O)c3ccccc3)cccc2[nH]1 (centres undefined) [BOPINDOLOL]	Not Active
Brc1c(NC2=NCCN2)ccc2nccnc12 [BRIMONIDINE]	Not Active
CN(C)[C@@H]1C(O)=C(C(N)=O)C(=O)[C@@]2(O)C(O)=C3C(=O)c4c(O)ccc(Cl)c4[C@@](C)(O)[C@H]3C[C@@H]12 [CHLORTETRACYCLINE]	Not Active
COc1cc(N)c(Cl)cc1C(=O)NC1CCN(CCCOc2ccc(F)cc2)CC1OC (centres undefined) [CISAPRIDE]	Not Active
O=C1CN=C(c2ccccc2Cl)c2cc([N+](=O)[O-])ccc2N1 [CLONAZEPAM]	Not Active
Nc1ccn([C@@H]2O[C@H](CO)[C@@H](O)[C@@H]2O)c(=O)n1 [CYTARABINE]	Not Active
CN(C)CC[C@@H](c1ccc(Cl)cc1)c1ccccn1 [DEXCHLORPHENIRAMINE]	Not Active

target: T3, Cytochrome P450 2A6 (Homo sapiens, UniProt P11509); conditions: bti-tn-5b1-4; note: in other assays of this panel Not Active means under 50% inhibition at 10 µM
T3 sequence (P11509 whole entry): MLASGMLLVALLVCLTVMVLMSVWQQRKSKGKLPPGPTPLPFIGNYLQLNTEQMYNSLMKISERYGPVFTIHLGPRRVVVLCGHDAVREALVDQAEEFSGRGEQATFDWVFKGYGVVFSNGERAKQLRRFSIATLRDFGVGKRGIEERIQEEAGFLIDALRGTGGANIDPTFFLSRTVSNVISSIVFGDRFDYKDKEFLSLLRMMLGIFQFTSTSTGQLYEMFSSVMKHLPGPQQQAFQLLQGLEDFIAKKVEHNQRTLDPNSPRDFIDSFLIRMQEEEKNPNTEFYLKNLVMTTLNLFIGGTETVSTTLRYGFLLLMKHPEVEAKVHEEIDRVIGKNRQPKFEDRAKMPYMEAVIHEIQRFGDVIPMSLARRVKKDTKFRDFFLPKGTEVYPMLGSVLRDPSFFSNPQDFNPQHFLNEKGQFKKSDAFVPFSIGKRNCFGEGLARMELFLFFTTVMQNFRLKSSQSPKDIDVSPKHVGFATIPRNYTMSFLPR

Structure (SMILES)	IC50	Ki
Cc1cc2c(OCC(CNC(C)(C)C)OC(=O)c3ccccc3)cccc2[nH]1 (centres undefined) [BOPINDOLOL]	Not Active	Not Active
Brc1c(NC2=NCCN2)ccc2nccnc12 [BRIMONIDINE]	Not Active	Not Active
CN(C)[C@@H]1C(O)=C(C(N)=O)C(=O)[C@@]2(O)C(O)=C3C(=O)c4c(O)ccc(Cl)c4[C@@](C)(O)[C@H]3C[C@@H]12 [CHLORTETRACYCLINE]	Not Active	Not Active
COc1cc(N)c(Cl)cc1C(=O)NC1CCN(CCCOc2ccc(F)cc2)CC1OC (centres undefined) [CISAPRIDE]	Not Active	Not Active
O=C1CN=C(c2ccccc2Cl)c2cc([N+](=O)[O-])ccc2N1 [CLONAZEPAM]	Not Active	Not Active
Nc1ccn([C@@H]2O[C@H](CO)[C@@H](O)[C@@H]2O)c(=O)n1 [CYTARABINE]	Not Active	Not Active
CN(C)CC[C@@H](c1ccc(Cl)cc1)c1ccccn1 [DEXCHLORPHENIRAMINE]	Not Active	Not Active

target: Protein kinase C alpha type (Homo sapiens, UniProt P17252); type: cell-based; conditions: sf9;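 note: inhibition of PKCalpha kinase activity measured in an enzyme assay with histone as the phosphorylation substrate; in other assays of this panel Not Active means under 50% inhibition at 10 µM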

Structure (SMILES)	IC50
Cc1cc2c(OCC(CNC(C)(C)C)OC(=O)c3ccccc3)cccc2[nH]1 (centres undefined) [BOPINDOLOL]	Not Active
Brc1c(NC2=NCCN2)ccc2nccnc12 [BRIMONIDINE]	Not Active
CN(C)[C@@H]1C(O)=C(C(N)=O)C(=O)[C@@]2(O)C(O)=C3C(=O)c4c(O)ccc(Cl)c4[C@@](C)(O)[C@H]3C[C@@H]12 [CHLORTETRACYCLINE]	Not Active
COc1cc(N)c(Cl)cc1C(=O)NC1CCN(CCCOc2ccc(F)cc2)CC1OC (centres undefined) [CISAPRIDE]	Not Active
O=C1CN=C(c2ccccc2Cl)c2cc([N+](=O)[O-])ccc2N1 [CLONAZEPAM]	Not Active
Nc1ccn([C@@H]2O[C@H](CO)[C@@H](O)[C@@H]2O)c(=O)n1 [CYTARABINE]	Not Active
CN(C)CC[C@@H](c1ccc(Cl)cc1)c1ccccn1 [DEXCHLORPHENIRAMINE]	Not Active

target: 5-hydroxytryptamine receptor 1B (Rattus norvegicus, UniProt P28564); type: cell membranes, Wistar, Cerebral cortex, Membrane; conditions: not given; note: in other assays of this panel Not Active means under 50% inhibition at 10 µM
Sequence (P28564 whole entry): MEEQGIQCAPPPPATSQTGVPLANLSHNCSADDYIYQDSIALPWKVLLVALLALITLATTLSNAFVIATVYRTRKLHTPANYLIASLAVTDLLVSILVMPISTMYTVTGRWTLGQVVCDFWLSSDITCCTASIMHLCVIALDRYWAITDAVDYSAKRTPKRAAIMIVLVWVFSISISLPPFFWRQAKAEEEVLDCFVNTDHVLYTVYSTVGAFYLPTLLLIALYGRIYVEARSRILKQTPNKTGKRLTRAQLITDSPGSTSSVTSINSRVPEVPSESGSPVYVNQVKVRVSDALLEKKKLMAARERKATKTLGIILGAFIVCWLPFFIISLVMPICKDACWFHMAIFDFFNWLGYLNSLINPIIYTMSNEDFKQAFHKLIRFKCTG

Structure (SMILES)	IC50
Cc1cc2c(OCC(CNC(C)(C)C)OC(=O)c3ccccc3)cccc2[nH]1 (centres undefined) [BOPINDOLOL]	Not Active
Brc1c(NC2=NCCN2)ccc2nccnc12 [BRIMONIDINE]	Not Active
CN(C)[C@@H]1C(O)=C(C(N)=O)C(=O)[C@@]2(O)C(O)=C3C(=O)c4c(O)ccc(Cl)c4[C@@](C)(O)[C@H]3C[C@@H]12 [CHLORTETRACYCLINE]	Not Active
COc1cc(N)c(Cl)cc1C(=O)NC1CCN(CCCOc2ccc(F)cc2)CC1OC (centres undefined) [CISAPRIDE]	Not Active
O=C1CN=C(c2ccccc2Cl)c2cc([N+](=O)[O-])ccc2N1 [CLONAZEPAM]	Not Active
Nc1ccn([C@@H]2O[C@H](CO)[C@@H](O)[C@@H]2O)c(=O)n1 [CYTARABINE]	Not Active
CN(C)CC[C@@H](c1ccc(Cl)cc1)c1ccccn1 [DEXCHLORPHENIRAMINE]	Not Active

system: not listed separately; assay: DRUGMATRIX: Nicotinic Acetylcholine radioligand binding (ligand: [125I] Epibatidine); type: cell membranes, Membrane; conditions: imr-32; Not Active = under 50% inhibition at 10 µM

Structure (SMILES)	IC50	Ki
Cc1cc2c(OCC(CNC(C)(C)C)OC(=O)c3ccccc3)cccc2[nH]1 (centres undefined) [BOPINDOLOL]	Not Active	Not Active
Brc1c(NC2=NCCN2)ccc2nccnc12 [BRIMONIDINE]	Not Active	Not Active
CN(C)[C@@H]1C(O)=C(C(N)=O)C(=O)[C@@]2(O)C(O)=C3C(=O)c4c(O)ccc(Cl)c4[C@@](C)(O)[C@H]3C[C@@H]12 [CHLORTETRACYCLINE]	Not Active	Not Active
COc1cc(N)c(Cl)cc1C(=O)NC1CCN(CCCOc2ccc(F)cc2)CC1OC (centres undefined) [CISAPRIDE]	Not Active	Not Active
O=C1CN=C(c2ccccc2Cl)c2cc([N+](=O)[O-])ccc2N1 [CLONAZEPAM]	Not Active	Not Active
Nc1ccn([C@@H]2O[C@H](CO)[C@@H](O)[C@@H]2O)c(=O)n1 [CYTARABINE]	Not Active	Not Active
CN(C)CC[C@@H](c1ccc(Cl)cc1)c1ccccn1 [DEXCHLORPHENIRAMINE]	Not Active	Not Active

system: not listed separately; assay: DRUGMATRIX: Sigma2 radioligand binding (ligand: [3H] Ifenprodil); type: cell membranes, Rattus norvegicus, Wistar, Brain, Membrane; conditions: Not Active = under 50% inhibition at 10 µM

Structure (SMILES)	IC50	Ki
Cc1cc2c(OCC(CNC(C)(C)C)OC(=O)c3ccccc3)cccc2[nH]1 (centres undefined) [BOPINDOLOL]	Not Active	Not Active
Brc1c(NC2=NCCN2)ccc2nccnc12 [BRIMONIDINE]	Not Active	Not Active
CN(C)[C@@H]1C(O)=C(C(N)=O)C(=O)[C@@]2(O)C(O)=C3C(=O)c4c(O)ccc(Cl)c4[C@@](C)(O)[C@H]3C[C@@H]12 [CHLORTETRACYCLINE]	Not Active	Not Active
O=C1CN=C(c2ccccc2Cl)c2cc([N+](=O)[O-])ccc2N1 [CLONAZEPAM]	Not Active	Not Active
Nc1ccn([C@@H]2O[C@H](CO)[C@@H](O)[C@@H]2O)c(=O)n1 [CYTARABINE]	Not Active	Not Active

same assay, conditions: Not Active = under 50% inhibition at 10 µM; read-out: IC50

Structure (SMILES)	IC50 [µM]
COc1cc(N)c(Cl)cc1C(=O)NC1CCN(CCCOc2ccc(F)cc2)CC1OC (centres undefined) [CISAPRIDE]	0.177
CN(C)CC[C@@H](c1ccc(Cl)cc1)c1ccccn1 [DEXCHLORPHENIRAMINE]	19.1

same assay, conditions: Not Active = under 50% inhibition at 10 µM; read-out: Ki

Structure (SMILES)	Ki [µM]
COc1cc(N)c(Cl)cc1C(=O)NC1CCN(CCCOc2ccc(F)cc2)CC1OC (centres undefined) [CISAPRIDE]	0.109
CN(C)CC[C@@H](c1ccc(Cl)cc1)c1ccccn1 [DEXCHLORPHENIRAMINE]	11.7

Reference: ChEMBL document CHEMBL1909046, “DrugMatrix in vitro pharmacology data”
